Measurements reported in patent publication US20240391940A1, “FUSED RING-CONTAINING COMPOUND, APPLICATION THEREOF, AND COMPOSITION CONTAINING SAME” (GenEros Biopharma Ltd., priority 2020, published 2024).
Read-outs that look alike come from different tables or passages of the source.

Columns and labels:
[1] = system: Apoe KO mouse atherosclerosis model; assay: Atherosclerosis model (Apoe KO mice, high-fat diet): blood lipid tests TCHO, TG, LDL-C, HDL-C; format: in vivo, C57BL/6 Apoe KO mice; details: Apoe KO mice, high-fat diet; GEN1-284s 60 mpk QD oral, 8 weeks
Protocol: Method: Apoe KO mice were tested for basal blood lipid levels and divided into a normal control group and a high-fat group. After 8 weeks of housing, the mice from the high-fat group were divided into 4 groups of about 8: a normal diet group (Chow), a high-fat diet model group (HFD), an Atorvastatin positive group (HFD+atorvastatin 5 mpk, QD), and a GEN1-284s group (284-60 mpk, QD). Oral administration was performed for 8 consecutive weeks, and the effect of the compound on the following indicators in Apoe KO mice was observed: 4 blood lipid tests (TC, TG, HDL-C and LDL-C), aortic plaque En-face staining, and pathological oil red staining of the cardiac outflow tract.
Mice from the groups except for the normal diet control group (Chow) were fed with high-fat feed every day for […]. From week 9, each group was orally administered solvent or a corresponding test compound, and body weight data were recorded every day for 8 consecutive weeks. After the first 8 weeks' high-fat diet, blood samples were taken and centrifuged to separate serum, and the serum was tested for blood lipid levels (TCHO, TG, LDL-C and HDL-C). The mice were randomly grouped according to the TCHO results and body weight. During the subsequent 8 weeks of administration, blood lipid tests (TCHO, TG, LDL-C and HDL-C) were run once every 4 weeks.
Mice were fasted overnight, and blood (150 μL) was collected via mandibular blood sampling or eye ball removal (for endpoint only) and left at room temperature for 2 h. The blood was centrifuged at 4° C. at 7000 rpm for 10 min, and serum was pipetted, quick-frozen in dry ice and then stored at −80° C. before analysis. The serum was tested for the biochemical indicators TCHO, TG, LDL-C and HDL-C using kits and a microplate reader.

[2] = system: LPS-induced production of TNF-α; assay: LPS-induced TNF-α production in mice (plasma ELISA); format: in vivo; details: Balb/c mice; GEN1-284s 15 mpk intragastric, LPS 1 mpk i.p. 0.5 h after administration, plasma 2 h after LPS
Protocol: Materials and method: A total of 18 mice were used in this experiment. The mice were divided into a MOCK group (n=6), a dexamethasone group (n=6), and a GEN1-284s 15 mpk group (n=6). LPS (1 mpk) was intraperitoneally injected 0.5 h after administration. The mice were sacrificed 2 h after the LPS injection, and blood samples were taken. The blood samples were left in EDTA-K2 anticoagulant tubes at room temperature for 20 min and centrifuged at 8000 rpm for 10 min. The plasma was separated and cryopreserved at −80° C. before analysis.
LPS (1 mpk) was intraperitoneally injected 0.5 h after administration. The mice were sacrificed 2 h after the LPS injection, and blood samples were taken. The blood samples were left in EDTA-K2 anticoagulant tubes at room temperature for 20 min and centrifuged at 8000 rpm for 10 min. The plasma was separated and cryopreserved at −80° C. before analysis.
The mice were tested for TNF-α level with ELISA kits, and the inhibitory effect of GEN1-284s on the TNF-α level was evaluated.
According to the instructions for use, a standard curve formula (y=0.0038x+0.1206, R^2=0.9956) was obtained and can be used to calculate detection values.

[3] = system: collagen-induced arthritis (CIA) mouse model; details: for clinical score / body weight: Mean ± SEM

O=C(Cc1ccc2ncccc2c1)N1CCC(n2c(=O)n(COP(=O)([O-])[O-])c3cccc(C(F)(F)F)c32)CC1.[Na+].[Na+] [GEN1-284 salt, (2-Oxo-3-(1-(2-(quinolin-6-yl)acetyl)piperidin-4-yl)-4-(trifluoromethyl)-2,3-dihydro-1H-benzo[d]imidazol-1-yl)methyl disodium phosphate]
Effect on dyslipidemia (TCHO, TG, HDL-C and LDL-C) [1]: partially ameliorate dyslipidemia | Inhibition rate against LPS-induced TNF-α [2]: 36% | Day on which consistent significant inhibition of the score of arthritis began ([3]; CIA mice, GEN1-284s 50 mg/kg): 32 days | Histomorphological effect on arthritis ([3]; CIA mice, GEN1-284s 50 mg/kg): tendency to relieve arthritis in animals | Inhibition rate of clinical score curve AUC relative to vehicle control group ([3]; CIA mice, GEN1-284s 50 mg/kg): 56.9% | Pathology total score ([3]; CIA mice, GEN1-284s 50 mg/kg): lower than that of the vehicle control group | clinical score ([3]; CIA mice, GEN1-284s 50 mg/kg p.o. QD from day 28, day 21): 0.0 ± 0.00 | clinical score ([3]; CIA mice, GEN1-284s 50 mg/kg p.o. QD from day 28, day 25): 0.3 ± 0.16 | clinical score ([3]; CIA mice, GEN1-284s 50 mg/kg p.o. QD from day 28, day 28): 0.6 ± 0.26 | clinical score ([3]; CIA mice, GEN1-284s 50 mg/kg p.o. QD from day 28, day 29): 0.8 ± 0.25 | clinical score ([3]; CIA mice, GEN1-284s 50 mg/kg p.o. QD from day 28, day 32): 1.3 ± 0.31 | clinical score ([3]; CIA mice, GEN1-284s 50 mg/kg p.o. QD from day 28, day 34): 1.8 ± 0.56 | clinical score ([3]; CIA mice, GEN1-284s 50 mg/kg p.o. QD from day 28, day 36): 2.4 ± 0.84 | clinical score ([3]; CIA mice, GEN1-284s 50 mg/kg p.o. QD from day 28, day 39): 2.9 ± 0.90 | body weight ([3]; CIA mice, GEN1-284s 50 mg/kg, day 21): 20.64 ± 0.23 | body weight ([3]; CIA mice, GEN1-284s 50 mg/kg, day 25): 20.73 ± 0.24 | body weight ([3]; CIA mice, GEN1-284s 50 mg/kg, day 28): 20.65 ± 0.25 | body weight ([3]; CIA mice, GEN1-284s 50 mg/kg, day 29): 20.49 ± 0.25 | body weight ([3]; CIA mice, GEN1-284s 50 mg/kg, day 32): 19.66 ± 0.28 | body weight ([3]; CIA mice, GEN1-284s 50 mg/kg, day 34): 20.41 ± 0.31 | body weight ([3]; CIA mice, GEN1-284s 50 mg/kg, day 36): 20.54 ± 0.36 | body weight ([3]; CIA mice, GEN1-284s 50 mg/kg, day 39): 20.48 ± 0.27 | body weight ([3]; CIA mice, GEN1-284s 50 mg/kg, day 41): 20.95 ± 0.20 | Day on which consistent significant inhibition of the score of arthritis began ([3]; CIA mice, GEN1-284s 150 mg/kg): 34 days | clinical score ([3]; CIA mice, GEN1-284s 150 mg/kg p.o. QD from day 28, day 21): 0.0 ± 0.00 | clinical score ([3]; CIA mice, GEN1-284s 150 mg/kg p.o. QD from day 28, day 25): 0.0 ± 0.00 | clinical score ([3]; CIA mice, GEN1-284s 150 mg/kg p.o. QD from day 28, day 28): 0.6 ± 0.26 | clinical score ([3]; CIA mice, GEN1-284s 150 mg/kg p.o. QD from day 28, day 29): 0.9 ± 0.40 | clinical score ([3]; CIA mice, GEN1-284s 150 mg/kg p.o. QD from day 28, day 32): 2.0 ± 0.42 | clinical score ([3]; CIA mice, GEN1-284s 150 mg/kg p.o. QD from day 28, day 34): 2.5 ± 0.57 | clinical score ([3]; CIA mice, GEN1-284s 150 mg/kg p.o. QD from day 28, day 36): 3.4 ± 0.78 | clinical score ([3]; CIA mice, GEN1-284s 150 mg/kg p.o. QD from day 28, day 39): 3.9 ± 0.93 | body weight ([3]; CIA mice, GEN1-284s 150 mg/kg, day 21): 20.40 ± 0.23 | body weight ([3]; CIA mice, GEN1-284s 150 mg/kg, day 25): 20.53 ± 0.27 | body weight ([3]; CIA mice, GEN1-284s 150 mg/kg, day 28): 20.64 ± 0.24 | body weight ([3]; CIA mice, GEN1-284s 150 mg/kg, day 29): 20.48 ± 0.29 | body weight ([3]; CIA mice, GEN1-284s 150 mg/kg, day 32): 20.06 ± 0.25 | body weight ([3]; CIA mice, GEN1-284s 150 mg/kg, day 34): 20.41 ± 0.41 | body weight ([3]; CIA mice, GEN1-284s 150 mg/kg, day 36): 20.70 ± 0.35 | body weight ([3]; CIA mice, GEN1-284s 150 mg/kg, day 39): 20.40 ± 0.29 | body weight ([3]; CIA mice, GEN1-284s 150 mg/kg, day 41): 20.91 ± 0.26 | clinical score ([3]; CIA mice, GEN1-284s 300 mg/kg group (500 mg/kg 5 days, then 300 mg/kg) p.o. QD from day 28, day 21): 0.0 ± 0.00 | clinical score ([3]; CIA mice, GEN1-284s 300 mg/kg group (500 mg/kg 5 days, then 300 mg/kg) p.o. QD from day 28, day 25): 0.0 ± 0.00 | clinical score ([3]; CIA mice, GEN1-284s 300 mg/kg group (500 mg/kg 5 days, then 300 mg/kg) p.o. QD from day 28, day 28): 0.6 ± 0.26 | clinical score ([3]; CIA mice, GEN1-284s 300 mg/kg group (500 mg/kg 5 days, then 300 mg/kg) p.o. QD from day 28, day 29): 0.6 ± 0.24 | clinical score ([3]; CIA mice, GEN1-284s 300 mg/kg group (500 mg/kg 5 days, then 300 mg/kg) p.o. QD from day 28, day 32): 2.0 ± 0.58 | clinical score ([3]; CIA mice, GEN1-284s 300 mg/kg group (500 mg/kg 5 days, then 300 mg/kg) p.o. QD from day 28, day 34): 2.5 ± 0.87 | clinical score ([3]; CIA mice, GEN1-284s 300 mg/kg group (500 mg/kg 5 days, then 300 mg/kg) p.o. QD from day 28, day 36): 4.0 ± 1.15 | clinical score ([3]; CIA mice, GEN1-284s 300 mg/kg group (500 mg/kg 5 days, then 300 mg/kg) p.o. QD from day 28, day 39): 5.5 ± 1.19 | clinical score ([3]; CIA mice, GEN1-284s 300 mg/kg group (500 mg/kg 5 days, then 300 mg/kg) p.o. QD from day 28, day 41): 6.3 ± 1.38 | body weight ([3]; CIA mice, GEN1-284s 300 mg/kg group (500 mg/kg 5 days, then 300 mg/kg), day 21): 20.18 ± 0.29 | body weight ([3]; CIA mice, GEN1-284s 300 mg/kg group (500 mg/kg 5 days, then 300 mg/kg), day 25): 20.43 ± 0.27 | body weight ([3]; CIA mice, GEN1-284s 300 mg/kg group (500 mg/kg 5 days, then 300 mg/kg), day 28): 20.65 ± 0.34 | body weight ([3]; CIA mice, GEN1-284s 300 mg/kg group (500 mg/kg 5 days, then 300 mg/kg), day 29): 20.08 ± 0.49 | body weight ([3]; CIA mice, GEN1-284s 300 mg/kg group (500 mg/kg 5 days, then 300 mg/kg), day 32): 19.48 ± 1.02 | body weight ([3]; CIA mice, GEN1-284s 300 mg/kg group (500 mg/kg 5 days, then 300 mg/kg), day 34): 19.30 ± 1.05 | body weight ([3]; CIA mice, GEN1-284s 300 mg/kg group (500 mg/kg 5 days, then 300 mg/kg), day 36): 19.60 ± 0.81 | body weight ([3]; CIA mice, GEN1-284s 300 mg/kg group (500 mg/kg 5 days, then 300 mg/kg), day 39): 19.80 ± 0.96 | body weight ([3]; CIA mice, GEN1-284s 300 mg/kg group (500 mg/kg 5 days, then 300 mg/kg), day 41): 20.30 ± 0.78 | Mortality ([3]; CIA mice, GEN1-284s 500 mg/kg): death was caused among the mice | Tolerance ([3]; CIA mice, GEN1-284s 50, 150 and 300 mg/kg): good tolerance | Number of mice that died ([3]; high-dose group (500 mg/kg), day 32): On day 32, 1 mouse in the high-dose group died, and the dissection results showed that: the major abnormality was in the lungs, and no obvious abnormality was found in other organs.
